Results on 15 compounds are retold here after patent US9732046B2, “Substituted 1,2,4-triazines as tubulin inhibitors” (YM Biosciences Australia Pty Ltd., priority 2003, dated 2017).

For assay [1], the system named is Tubulin (microtubule protein). The assay is described as follows: Tubulin assay (turbidometric assay of microtubule assembly). The assay is classed as biochemical. To be noted: Table 1; 50 μM; absorbance at 340 nm, 37° C. The protocol:
Turbidometric assays of microtubule assembly were performed by incubating microtubule protein in cuvettes at 37° C. in a thermostatically controlled spectrophotometer measuring the change in absorbance at 340 nm over time. The microtubule protein was incubated with the each test compound at 0° C. and polymerisation was initiated by addition of 1 mM GTP, prior to heating to 37° C.

The test system of assay [2] is K562 (Chronic Myeloid Leukemia). The assay is described as follows: Cellular growth inhibition assay (MTT), K562. The assay is classed as cell-based. Conditions: Homo sapiens, Table 1, 40 hr incubation. Here is the method:
(§1) For screening purposes, compounds were diluted in 96 well plates at a concentration of 20 μM. Plates were warmed at 37° C. for 30 minutes before assay.
(§2) K562 (Chronic Myeloid Leukemia), PC3 (Prostate Cancer), and DU145 (Prostate Cancer) were obtained from the American Type Culture Collection (ATCC). K562 was grown in RPMI, with 10% FBS with Glutamx added. DU145 cells were cultured in DMED, with 10% FBS and Glutamx and MEM non-essential amino acids added. PC3 cells were grown in F12K medium, with 10% FBS and Glutamx and MEM non-essential amino acids added. All cells were grown at 37° C. in 5% CO2.
(§3) Cell suspensions were prepared by harvesting cells from culture. (Cells used in this test should be in later log phase growth and high viability.) Cells were diluted in correct growth medium to 1.1× final concentration (from 50000 cell/mL to 200,000 cell/mL, depending on cell line).
(§4) Compounds to be tested were added (10 μL, 10× final concentration) to a flat bottom 96-well plate. The cellular suspension (90 μL per well) was added, and the plate incubated for 40 hr at 37° C., 5% CO2. MTT (20 μL per well, 5 mg/mL in PBS) was added and the plates were returned to the incubator for a further 6 hours. Lysis buffer (100 μL per well, 10% SDS, 0.01N HCl) was added and the plate stored in the incubator overnight. The plate was then read at 590 nm.

The target of assay [3] is T1, TelJak2 (BaF3 TELJAK cells, TEL/Jak2 fusion) (Homo sapiens, UniProt O60674).
T1 construct: The regions encompassing the kinase domain of JAK2 (nucleotides 2994-3914); expressed in transfected cells; host or cells: BaF3 cells bearing the pTET-off plasmid, transfected with pTELJAK2 (pTRE2 vector); the other entry of the earlier key: ETV6 (P41212, Transcription factor ETV6)
T1 sequence (O60674 with tags, fused parts or gaps): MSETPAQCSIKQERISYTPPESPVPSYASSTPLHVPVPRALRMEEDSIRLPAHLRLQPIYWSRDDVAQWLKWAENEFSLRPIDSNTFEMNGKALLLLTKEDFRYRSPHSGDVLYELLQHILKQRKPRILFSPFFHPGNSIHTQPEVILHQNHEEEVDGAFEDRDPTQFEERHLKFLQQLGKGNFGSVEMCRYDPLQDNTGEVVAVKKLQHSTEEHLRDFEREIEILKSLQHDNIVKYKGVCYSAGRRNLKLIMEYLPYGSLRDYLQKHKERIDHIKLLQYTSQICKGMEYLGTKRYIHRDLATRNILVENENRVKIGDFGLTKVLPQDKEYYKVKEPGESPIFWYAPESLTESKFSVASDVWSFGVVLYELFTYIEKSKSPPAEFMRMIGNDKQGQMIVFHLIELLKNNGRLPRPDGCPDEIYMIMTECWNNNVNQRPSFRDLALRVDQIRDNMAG
In words: Cellular growth inhibition assay (MTT), BaF3 TEL:JAK2 cell line. In kind it is cell-based. Conditions: Table 1, 40 hr incubation. The protocol:
as §1
(§5) The coding region encompassing nucleotides 1-487 of TEL was amplified by PCR using the oligonucleotides 5TEL (5′-GGAGGATCCTGATCTCTCTCGCTGTGAGAC-3′) (SEQ ID NO: 1) and 3TEL (5′-AGGC GTCGACTTCTTCTTGATGGTTCTG-3′) (SEQ ID NO: 2) and U937 mRNA as template. A BamH I site was incorporated into the 5TEL primer, and a Sal I site was incorporated into the 3TEL primer. The regions encompassing the kinase domain of JAK2 (nucleotides 2994-3914; JAK2F 5′-ACGC GTCGACGGTGCCTTTGAAGACCGGGAT-3 (SEQ ID NO: 3); JAK2R 5′-ATAGTTTAGCGGCCGCTCAGAATGAAGGTCATTT-3′) (SEQ ID NO: 4) and JAK3 (nucleotides 2520-3469; JAK3F 5′-GAAGTCGACTATGCCTGCCAAGACCCCACGATCTT-3′ (SEQ ID NO: 5); JAK3R 5′-GGATCTAGACTATGAAAAGGACAGGGAGTGGTGTTT-3′ (SEQ ID NO: 6)) were generated by PCR using Taq DNA polymerase (Gibco/BRL) and U937 mRNA as template. A Sal I site was incorporated into the forward primer of JAK2 and JAK3, a Not I site was incorporated into the JAK2 reverse primer and a Xba I site was added to the reverse primer of JAK3.
(§6) A TEL/Jak2 fusion was generated by digestion of the TELPCR product with BamH I/Sa1 I, digestion of the JAK2 PCR product with Sa1 I/Not I followed by ligation and subcloning into the mammalian expression Vector pTRE 2 (Clontech) digested with BamH I-Not I (pTELJAK2). For JAK3 Sa1 I/Not I cleaved kinase domain PCR product was ligated with BamH I/Sa1 I cleaved TELproduct followed by ligation into BamH I/Not I cleaved pTRE2 (pTELJAK3).
(§7) The growth factor dependent myelomonocytic cell line BaF3 bearing the pTET-off plasmid (Clontech) was transfected with either pTELJAK2 or pTELJAK3 and the cells selected for factor independent growth. BaF 3 wild type cells were cultured in DMEM 10% FCS, 10% WEHI 3B conditioned medium. BaF3 TELJAK cells were cultured in DMEM 10% Tet-System Approved FBS (without WEHI 3B conditioned medium).
as §3, §4

A further assay deals with DU145 (Prostate Cancer). In words: Cellular growth inhibition assay (MTT), DU145. Conditions: Homo sapiens, DU-145, Table 1, 40 hr incubation. In kind it is cell-based. The protocol:
as §1, §2, §3, §4

The next assay relates to PC3 (Prostate Cancer). The assay is described as follows: Cellular growth inhibition assay (MTT), PC3. In kind it is cell-based. Conditions: Table 1, 40 hr incubation. The protocol: as §1, §2, §3, §4
For assay [4], the target named is T2, TelJak3 (BaF3 TELJAK cells, TEL/JAK3 fusion) (Homo sapiens, UniProt P52333).
T2 construct: For JAK3 Sa1 I/Not I cleaved kinase domain PCR product was ligated with BamH I/Sa1 I cleaved TELproduct; expressed in transfected cells; host or cells: BaF3 cells bearing the pTET-off plasmid, transfected with pTELJAK3 (pTRE2 vector); the other entry of the earlier key: ETV6 (P41212, Transcription factor ETV6)
T2 sequence (P52333 with tags, fused parts or gaps): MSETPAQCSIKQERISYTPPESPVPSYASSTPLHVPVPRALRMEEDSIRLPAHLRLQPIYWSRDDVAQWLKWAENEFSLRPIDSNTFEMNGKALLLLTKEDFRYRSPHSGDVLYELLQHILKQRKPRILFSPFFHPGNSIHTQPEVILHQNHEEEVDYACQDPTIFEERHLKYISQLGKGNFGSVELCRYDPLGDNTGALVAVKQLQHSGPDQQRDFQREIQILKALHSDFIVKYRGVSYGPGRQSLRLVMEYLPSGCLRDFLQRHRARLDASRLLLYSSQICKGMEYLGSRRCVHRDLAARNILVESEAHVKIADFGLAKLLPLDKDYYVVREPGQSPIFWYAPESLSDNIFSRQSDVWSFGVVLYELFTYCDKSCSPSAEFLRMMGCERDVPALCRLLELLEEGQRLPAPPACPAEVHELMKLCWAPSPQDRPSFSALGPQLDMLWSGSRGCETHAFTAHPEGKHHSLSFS
The assay is described as follows: Cellular growth inhibition assay (MTT), BaF3 TEL:JAK3 cell line. In kind it is cell-based. Conditions: Table 1, 40 hr incubation. The protocol: as §1, §5, §6, §7, §3, §4

For orientation: inhibition means the drop in the measured response relative to a control, in per cent. Low readings indicate a weak effect, high ones a strong effect. As to `CCC[C@H](Nc1nc(-c2ccc(O)c(OC)c2)ncc1C)c1cccnc1`, in assay [1], the “Tubulin inhibition of tubulin polymerisation” value (shortened to “Tubulin inhibition”) is given as “+ (compounds which inhibited tubulin polymerisation by greater than 50% at 50 μM)”. Besides, the inhibition at 20 µM (in assay [2]; in assay [3]; in the assay with DU145 (Prostate Cancer); in the assay on PC3 (Prostate Cancer); in assay [4]) was over 50% in each case.

As to `CCCC(Nc1cncc(-c2ccc(CO)cc2)n1)c1ccccc1` (stereo not drawn), the “Tubulin inhibition” value in assay [1] is “+ (compounds which inhibited tubulin polymerisation by greater than 50% at 50 μM)”. The inhibition at 20 µM (in assay [2]; in assay [3]; in the assay with DU145 (Prostate Cancer); in the assay on PC3 (Prostate Cancer); in assay [4]) was over 50% each time.

In the case of `CCC[C@H](Nc1nc(-c2ccc(NC(=O)NCC)c(OC)c2)ncc1C)c1cccnc1`, in assay [1], the “Tubulin inhibition” value is “+ (compounds which inhibited tubulin polymerisation by greater than 50% at 50 μM)”. For the same compound, the inhibition at 20 µM (in assay [2]; in assay [3]; in the assay with DU145 (Prostate Cancer); in the assay with PC3 (Prostate Cancer); in assay [4]) was over 50% throughout.

Consider `CCCC(Nc1cncc(-c2ccc(OCCCCN3CCCC3)c(OC)c2)n1)c1ccccc1` (stereo not drawn), for which the “Tubulin inhibition” value in assay [1] is recorded as “+ (compounds which inhibited tubulin polymerisation by greater than 50% at 50 μM)”. Also, the inhibition at 20 µM (in assay [2]; in assay [3]; in the assay with DU145 (Prostate Cancer); with PC3 (Prostate Cancer); in assay [4]) was over 50% throughout.

On to `CCCC(Nc1nnc(C)c(-c2ccc(O)c(OC)c2)n1)c1ccccc1` (stereo not drawn), for which, in assay [1], the “Tubulin inhibition” value is recorded as “+ (compounds which inhibited tubulin polymerisation by greater than 50% at 50 μM)”. Moreover, the inhibition at 20 µM (in assay [2]; in assay [3]; in the assay on DU145 (Prostate Cancer); in the assay with PC3 (Prostate Cancer); in assay [4]) was over 50% each time.

In the case of `CCCC(Nc1cncc(-c2ccc(OCCCCO)c(OC)c2)n1)c1ccccc1` (stereo not drawn), the “Tubulin inhibition” value in assay [1] is listed as “+ (compounds which inhibited tubulin polymerisation by greater than 50% at 50 μM)”. For the same compound, the inhibition at 20 µM (in assay [2]; in assay [3]; in the assay with DU145 (Prostate Cancer); with PC3 (Prostate Cancer); in assay [4]) was over 50% in each case.

As for `CCCC(Nc1cncc(-c2ccc(OCCCCN(CC)CC)c(OC)c2)n1)c1ccccc1` (stereo not drawn), the “Tubulin inhibition” value in assay [1] is reported as “+ (compounds which inhibited tubulin polymerisation by greater than 50% at 50 μM)”. Further, the inhibition at 20 µM (in assay [2]; in assay [3]; in the assay on DU145 (Prostate Cancer); in the assay with PC3 (Prostate Cancer); in assay [4]) was over 50% in each case.

In the case of `CCNC(=O)Nc1ccc(-c2cncc(N[C@@H](COCC)c3ccccc3)n2)cc1OC`, the “Tubulin inhibition” value in assay [1] is reported as “+ (compounds which inhibited tubulin polymerisation by greater than 50% at 50 μM)”. The inhibition at 20 µM (in assay [2]; in assay [3]; in the assay with DU145 (Prostate Cancer); in the assay on PC3 (Prostate Cancer); in assay [4]) was over 50% each time.

In the case of `CCCC(Nc1cncc(-c2ccc(CN)cc2)n1)c1ccccc1` (stereo not drawn), the “Tubulin inhibition” value in assay [1] is recorded as “+ (compounds which inhibited tubulin polymerisation by greater than 50% at 50 μM)”. Besides, the inhibition at 20 µM (in assay [2]; in assay [3]; in the assay on DU145 (Prostate Cancer); in the assay on PC3 (Prostate Cancer); in assay [4]) was over 50% in each case.

Consider `CCCC(Nc1cc(-c2ccc(O)c(OC)c2)ncn1)c1cccnc1` (stereo not drawn), for which, in assay [1], the “Tubulin inhibition” value was “+ (compounds which inhibited tubulin polymerisation by greater than 50% at 50 μM)”. The inhibition at 20 µM (in assay [2]; in assay [3]; in the assay on DU145 (Prostate Cancer); in the assay on PC3 (Prostate Cancer); in assay [4]) was over 50% throughout.

As for `CCCC(Nc1cncc(-c2ccc(NC(=O)NCC)c(C)c2)n1)c1ccccn1` (stereo not drawn), the “Tubulin inhibition” value in assay [1] is “+ (compounds which inhibited tubulin polymerisation by greater than 50% at 50 μM)”. The inhibition at 20 µM (in assay [2]; in assay [3]; in the assay with DU145 (Prostate Cancer); in the assay with PC3 (Prostate Cancer); in assay [4]) was over 50% throughout.

As to `CCCC(Nc1cncc(-c2ccc(OCCCCN)c(OC)c2)n1)c1ccccc1` (stereo not drawn), the “Tubulin inhibition” value in assay [1] is “+ (compounds which inhibited tubulin polymerisation by greater than 50% at 50 μM)”. Also, the inhibition at 20 µM (in assay [2]; in assay [3]; in the assay with DU145 (Prostate Cancer); in the assay with PC3 (Prostate Cancer); in assay [4]) was over 50% in each case.

Regarding `CCCC(Nc1cncc(-c2ccc(CNC(=O)C3CCNCC3)cc2)n1)c1ccccc1` (stereo not drawn), the “Tubulin inhibition” value in assay [1] is reported as “+ (compounds which inhibited tubulin polymerisation by greater than 50% at 50 μM)”. For the same compound, the inhibition at 20 µM (in assay [2]; in assay [3]; with DU145 (Prostate Cancer); in the assay with PC3 (Prostate Cancer); in assay [4]) was over 50% in each case.

As to `CCCC(Nc1cncc(-c2ccc(NC(=O)NCC)c(CC)c2)n1)c1cccnc1` (stereo not drawn), the “Tubulin inhibition” value in assay [1] is recorded as “+ (compounds which inhibited tubulin polymerisation by greater than 50% at 50 μM)”. Besides, the inhibition at 20 µM (in assay [2]; in assay [3]; in the assay on DU145 (Prostate Cancer); with PC3 (Prostate Cancer); in assay [4]) was over 50% each time.

`CCNC(=O)Nc1ccc(-c2ncc(C)c(N[C@@H](CC)c3cccnc3)n2)cc1OC`: the “Tubulin inhibition” value in assay [1] is on record as “+ (compounds which inhibited tubulin polymerisation by greater than 50% at 50 μM)”. The inhibition at 20 µM (in assay [2]; in assay [3]; with DU145 (Prostate Cancer); in the assay on PC3 (Prostate Cancer); in assay [4]) was over 50% each time.
